ChEMBL document CHEMBL1201862, “PubChem BioAssay data set” (2004)
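Following 48 hours of exposure in 96-well plates, responses at five concentrations were used to interpolate endpoints linearly. GI50 marks 50% less growth.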 Calls of active or inactive are those of the source. Rule as the data show it: active = GI50 up to about 1.1 µM and inactive = higher.

Columns and labels:
Assay in all cases: growth of human tumour cells (NCI), 48 h
[1] = test system: A549
[2] = test system: SK-MEL-2
[3] = test system: ACHN
[4] = test system: NCI-H23
[5] = test system: CCRF-CEM
[6] = test system: EKVX
[7] = test system: CAKI-1
[8] = test system: 786-0
[9] = test system: MOLT-4
[10] = test system: UACC-257
[11] = test system: MDA-MB-231
[12] = test system: NCI-H460
[13] = test system: KM12
[14] = test system: SNB-75
[15] = test system: U-251
[16] = test system: A498
[17] = test system: SW-620
[18] = test system: OVCAR-4
[19] = test system: COLO 205

SMILES | GI50 [1] | GI50 [2] | GI50 [3] | GI50 [4] | GI50 [5] | GI50 [6] | GI50 [7] | GI50 [8] | GI50 [9] | GI50 [10] | GI50 [11] | GI50 [12] | GI50 [13] | GI50 [14] | GI50 [15] | GI50 [16] | GI50 [17] | GI50 [18] | GI50 [19]
N#Cc1c(N)nc(S)c(C#N)c1-c1ccccc1 | > 100 µM (inactive) | 82.4 µM (inactive) | > 100 µM (inactive) | > 100 µM (inactive) | > 100 µM (inactive) | > 100 µM (inactive) | 88.1 µM (inactive) | > 100 µM (inactive) | > 100 µM (inactive) | > 100 µM (inactive) | > 100 µM (inactive) | > 100 µM (inactive) | > 100 µM (inactive) | 58.3 µM (inactive) | > 100 µM (inactive) | > 100 µM (inactive) | > 100 µM (inactive) | – | –
CCON1CC(C(=O)OC)=C(O)C1=O | > 100 µM (inactive) | > 100 µM (inactive) | > 100 µM (inactive) | > 100 µM (inactive) | – | > 100 µM (inactive) | > 100 µM (inactive) | > 100 µM (inactive) | > 100 µM (inactive) | > 100 µM (inactive) | > 100 µM (inactive) | > 100 µM (inactive) | > 100 µM (inactive) | > 100 µM (inactive) | > 100 µM (inactive) | > 100 µM (inactive) | > 100 µM (inactive) | > 100 µM (inactive) | > 100 µM (inactive)
Oc1ccc2ccccc2c1NCn1nc(CCCCCCCCc2nn(CNc3c(O)ccc4ccccc34)c(=S)o2)oc1=S | > 100 µM (inactive) | > 100 µM (inactive) | > 100 µM (inactive) | > 100 µM (inactive) | – | > 100 µM (inactive) | > 100 µM (inactive) | > 100 µM (inactive) | > 100 µM (inactive) | > 100 µM (inactive) | > 100 µM (inactive) | > 100 µM (inactive) | 28.9 µM (inactive) | > 100 µM (inactive) | > 100 µM (inactive) | > 100 µM (inactive) | > 100 µM (inactive) | > 100 µM (inactive) | > 100 µM (inactive)
O=C1/C(=C\Oc2ccc(F)cc2)N2CCC1CC2 | > 100 µM (inactive) | 61.2 µM (inactive) | 76.2 µM (inactive) | 54.5 µM (inactive) | 34.4 µM (inactive) | 55.5 µM (inactive) | 84.9 µM (inactive) | > 100 µM (inactive) | 34.1 µM (inactive) | 23.7 µM (inactive) | 80.5 µM (inactive) | – | – | 24.8 µM (inactive) | 77.1 µM (inactive) | > 100 µM (inactive) | – | 46.8 µM (inactive) | > 100 µM (inactive)
Clc1ccc(-c2ccc(-c3nnc(CCc4nnc(-c5ccc(-c6ccc(Cl)cc6)o5)o4)o3)o2)cc1 | > 100 µM (inactive) | 23.4 µM (inactive) | > 55.6 µM (inactive) | > 60.5 µM (inactive) | 2.89 µM (inactive) | > 85.3 µM (inactive) | > 100 µM (inactive) | > 43.3 µM (inactive) | 3.81 µM (inactive) | > 100 µM (inactive) | 28.3 µM (inactive) | > 100 µM (inactive) | > 100 µM (inactive) | – | 17.1 µM (inactive) | 30.5 µM (inactive) | > 95.7 µM (inactive) | > 100 µM (inactive) | > 100 µM (inactive)
O=C1C(Cl)=C(NCCN2CCOCC2)C(=O)c2ncccc21 | 2 µM (inactive) | – | 2.82 µM (inactive) | 1.62 µM (inactive) | 0.394 µM (active) | 1.75 µM (inactive) | – | 1.44 µM (inactive) | 1.51 µM (inactive) | 1.71 µM (inactive) | 2.08 µM (inactive) | 1.46 µM (inactive) | 1.73 µM (inactive) | 1.35 µM (inactive) | 1.66 µM (inactive) | 2.97 µM (inactive) | 1.85 µM (inactive) | – | –
CN(C)c1ccc(/C=c2/c3ccccc3n3c2cc(NC(=O)NCCC[N+](C)(C)C)[n+]3C)cc1 | > 100 µM (inactive) | > 100 µM (inactive) | > 100 µM (inactive) | > 100 µM (inactive) | 0.452 µM (active) | > 100 µM (inactive) | > 100 µM (inactive) | > 100 µM (inactive) | > 100 µM (inactive) | > 100 µM (inactive) | > 100 µM (inactive) | > 100 µM (inactive) | > 100 µM (inactive) | – | 50 µM (inactive) | > 100 µM (inactive) | > 100 µM (inactive) | 22.2 µM (inactive) | > 100 µM (inactive)
CC(=O)Oc1ccc2c3c1[C@H]1O[C@H]1c1cccc(c1-3)[C@@H]1O[C@H]21 | 7.33 µM (inactive) | 9.55 µM (inactive) | 18.3 µM (inactive) | 4.92 µM (inactive) | – | 16.5 µM (inactive) | 3.22 µM (inactive) | 2.21 µM (inactive) | 18.5 µM (inactive) | 8.22 µM (inactive) | 12.8 µM (inactive) | – | 12.6 µM (inactive) | 4.13 µM (inactive) | 4.99 µM (inactive) | 11.9 µM (inactive) | 2.09 µM (inactive) | 7.23 µM (inactive) | 10.4 µM (inactive)
CC(C)=CC(=O)c1[nH]c2ccccc2c1CC(=O)NCCc1cn(C(c2ccccc2)(c2ccccc2)c2ccccc2)cn1 | 2.87 µM (inactive) | 1.81 µM (inactive) | 3.54 µM (inactive) | 4.69 µM (inactive) | 2.48 µM (inactive) | 3.48 µM (inactive) | 7.87 µM (inactive) | 3.82 µM (inactive) | 2.26 µM (inactive) | 3.67 µM (inactive) | 2.16 µM (inactive) | 2.97 µM (inactive) | 3.29 µM (inactive) | – | 2.82 µM (inactive) | 4.22 µM (inactive) | 3.74 µM (inactive) | 3.86 µM (inactive) | 1.81 µM (inactive)
CCOC(=O)c1c(N)nn2c1cc1cccccc12 | 36.8 µM (inactive) | 19.1 µM (inactive) | 27.9 µM (inactive) | 29.3 µM (inactive) | 43.5 µM (inactive) | 16.3 µM (inactive) | 27.9 µM (inactive) | 34.4 µM (inactive) | 25.7 µM (inactive) | 27.4 µM (inactive) | 43 µM (inactive) | 20.1 µM (inactive) | 20.8 µM (inactive) | – | 24 µM (inactive) | 29.4 µM (inactive) | 32.5 µM (inactive) | 33.6 µM (inactive) | 31.9 µM (inactive)
CC1=NN(c2nc(N)nc(CO)n2)C(C)(C)C1 | > 100 µM (inactive) | > 100 µM (inactive) | > 100 µM (inactive) | > 100 µM (inactive) | > 100 µM (inactive) | > 100 µM (inactive) | > 100 µM (inactive) | > 100 µM (inactive) | > 100 µM (inactive) | > 100 µM (inactive) | > 100 µM (inactive) | – | > 100 µM (inactive) | > 100 µM (inactive) | > 100 µM (inactive) | > 100 µM (inactive) | > 100 µM (inactive) | > 100 µM (inactive) | > 100 µM (inactive)
N=C(N)SCCSC(=N)N | > 100 µM (inactive) | – | > 100 µM (inactive) | > 100 µM (inactive) | – | 47 µM (inactive) | > 100 µM (inactive) | > 100 µM (inactive) | > 100 µM (inactive) | > 100 µM (inactive) | > 100 µM (inactive) | > 100 µM (inactive) | > 100 µM (inactive) | > 100 µM (inactive) | > 100 µM (inactive) | > 100 µM (inactive) | > 100 µM (inactive) | > 100 µM (inactive) | > 100 µM (inactive)
